We go through 47 compounds from patent US9637472B2, “Substituted 6,5-fused bicyclic heteroaryl compounds” (Epizyme, Inc., priority 2011, dated 2017).

Each structure is given as a SMILES string. pIC50: −log10 of the molar value.

The target in the test is EZH2 (Homo sapiens (Human), UniProt Q15910). Description: PRC2 enzyme assay on peptide substrates. The test is classed as biochemical. Conditions: PRC2 enzyme assays on peptide substrates; 4 nM enzyme, 30 min preincubation at 25° C.; read-out: EZH2 IC50.
EZH2, sequence (Q15910 other isoform, or with tags, fused parts or gaps): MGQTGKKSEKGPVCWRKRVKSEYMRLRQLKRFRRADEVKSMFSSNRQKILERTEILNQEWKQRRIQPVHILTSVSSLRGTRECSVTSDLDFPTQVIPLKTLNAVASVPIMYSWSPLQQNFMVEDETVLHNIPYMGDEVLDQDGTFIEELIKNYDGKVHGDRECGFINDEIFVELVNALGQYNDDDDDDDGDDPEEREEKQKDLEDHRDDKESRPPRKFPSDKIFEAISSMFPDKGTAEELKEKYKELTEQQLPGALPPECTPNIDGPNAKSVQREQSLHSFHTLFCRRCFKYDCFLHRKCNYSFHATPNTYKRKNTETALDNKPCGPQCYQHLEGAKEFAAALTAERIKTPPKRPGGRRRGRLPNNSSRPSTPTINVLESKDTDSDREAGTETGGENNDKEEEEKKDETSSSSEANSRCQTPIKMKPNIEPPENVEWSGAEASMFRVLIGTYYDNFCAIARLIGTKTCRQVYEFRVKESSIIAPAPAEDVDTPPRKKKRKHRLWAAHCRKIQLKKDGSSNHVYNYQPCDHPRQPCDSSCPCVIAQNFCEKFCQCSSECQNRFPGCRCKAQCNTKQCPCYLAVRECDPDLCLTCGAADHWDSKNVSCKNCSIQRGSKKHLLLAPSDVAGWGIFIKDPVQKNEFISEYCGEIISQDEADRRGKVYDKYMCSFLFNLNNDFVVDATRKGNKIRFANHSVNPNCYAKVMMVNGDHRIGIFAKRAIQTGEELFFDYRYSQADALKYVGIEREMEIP
EZH2, sequence (O75530 whole entry partner): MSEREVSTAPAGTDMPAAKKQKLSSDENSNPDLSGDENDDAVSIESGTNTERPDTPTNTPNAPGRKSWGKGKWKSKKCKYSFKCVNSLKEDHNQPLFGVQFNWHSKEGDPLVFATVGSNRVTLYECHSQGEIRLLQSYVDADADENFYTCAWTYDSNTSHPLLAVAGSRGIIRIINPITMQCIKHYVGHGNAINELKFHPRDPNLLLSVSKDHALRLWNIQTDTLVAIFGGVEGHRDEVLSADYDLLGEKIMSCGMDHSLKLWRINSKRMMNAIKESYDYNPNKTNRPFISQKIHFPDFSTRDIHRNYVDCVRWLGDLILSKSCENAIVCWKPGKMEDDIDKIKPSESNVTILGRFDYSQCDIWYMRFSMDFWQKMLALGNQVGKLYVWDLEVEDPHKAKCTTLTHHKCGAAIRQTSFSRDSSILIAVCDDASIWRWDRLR
EZH2, sequence (Q15022 whole entry partner): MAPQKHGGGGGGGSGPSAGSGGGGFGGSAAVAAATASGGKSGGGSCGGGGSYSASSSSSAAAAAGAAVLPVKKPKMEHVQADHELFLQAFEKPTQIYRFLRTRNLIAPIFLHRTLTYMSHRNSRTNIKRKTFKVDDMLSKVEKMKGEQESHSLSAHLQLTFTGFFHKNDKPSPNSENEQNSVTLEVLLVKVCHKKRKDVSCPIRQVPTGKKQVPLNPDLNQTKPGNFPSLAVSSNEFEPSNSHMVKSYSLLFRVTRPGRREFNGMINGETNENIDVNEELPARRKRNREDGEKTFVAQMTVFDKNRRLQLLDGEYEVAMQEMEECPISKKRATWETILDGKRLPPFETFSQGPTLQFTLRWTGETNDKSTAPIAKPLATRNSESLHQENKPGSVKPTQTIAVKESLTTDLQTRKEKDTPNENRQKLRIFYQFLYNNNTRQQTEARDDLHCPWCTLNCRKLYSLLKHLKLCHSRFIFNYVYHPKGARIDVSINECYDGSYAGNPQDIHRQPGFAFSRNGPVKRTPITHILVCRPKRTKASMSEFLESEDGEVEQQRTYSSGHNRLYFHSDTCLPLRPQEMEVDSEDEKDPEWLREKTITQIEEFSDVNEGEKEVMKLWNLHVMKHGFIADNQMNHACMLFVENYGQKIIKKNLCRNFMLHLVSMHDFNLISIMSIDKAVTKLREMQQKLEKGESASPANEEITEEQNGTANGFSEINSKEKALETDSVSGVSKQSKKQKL
EZH2, sequence (Q09028 whole entry partner): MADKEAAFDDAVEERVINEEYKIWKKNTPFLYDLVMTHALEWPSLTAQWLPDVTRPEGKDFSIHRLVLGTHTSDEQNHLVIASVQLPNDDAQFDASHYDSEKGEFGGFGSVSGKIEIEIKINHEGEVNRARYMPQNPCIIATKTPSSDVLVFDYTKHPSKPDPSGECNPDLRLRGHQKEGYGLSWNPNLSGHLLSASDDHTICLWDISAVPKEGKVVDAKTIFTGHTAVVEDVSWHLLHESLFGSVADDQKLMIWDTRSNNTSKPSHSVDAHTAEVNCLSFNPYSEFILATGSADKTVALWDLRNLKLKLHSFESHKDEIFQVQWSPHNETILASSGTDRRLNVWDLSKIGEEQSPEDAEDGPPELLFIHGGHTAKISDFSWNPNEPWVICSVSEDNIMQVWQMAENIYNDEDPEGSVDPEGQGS
As to `COC(=O)/C=C/Cn1ncc2c(C(=O)NCc3c(C)cc(C)[nH]c3=O)cc(C3=CC(C)(C)NC(C)(C)C3)nc21` [Compound B-124], the negative logarithm of the IC50 (pIC50) – broadly, the negative decadic logarithm of the IC50, by convention in mol/L – is 5.00 to 5.52.

On to `Cc1cc(C)c(CNC(=O)c2cc(N)nc3c2cnn3C(C)C)c(=O)[nH]1` [Compound B-125], for which the negative logarithm of the IC50 (pIC50) is 5.00 to 5.52.

As to `Cc1cc(C)c(CNC(=O)c2cc(C(O)CO)nc3c2cnn3C(C)C)c(=O)[nH]1` (centres unmarked) [Compound B-126], the negative-log IC50 (pIC50) is 5.00 to 5.52.

On to `Cc1cc(C)c(CNC(=O)c2ccnc3c2cnn3C(C)C)c(=O)[nH]1` [Compound B-127], for which the pIC50 was 5.00 to 5.52.

Turning to `Cc1cc(C)c(CNC(=O)c2cc(C(=O)N3CCC(N4CCN(C)CC4)CC3)nc3c2cnn3C(C)C)c(=O)[nH]1` [Compound B-128], the pIC50 is 5.00 to 5.52.

Consider `Cc1cc(C)c(CNC(=O)c2cc(C3CCOCC3)nc3c2cnn3C(C)C)c(=O)[nH]1` [Compound B-129], for which the negative-log IC50 (pIC50) is 5.00 to 5.52.

For the compound `Cc1cc(C)c(CNC(=O)c2cc(C3=CC(C)(C)NC(C)(C)C3)nc3c2cnn3CC2CC2)c(=O)[nH]1` [Compound B-130], the pIC50 was 5.00 to 5.52.

For `CCn1ncc2c(C(=O)NCc3c(C)cc(C)[nH]c3=O)cc(C3=CC(C)(C)NC(C)(C)C3)nc21` [Compound B-131], the negative-log IC50 (pIC50) was 5.00 to 5.52.

For `Cc1cc(C)c(CNC(=O)c2cc(C(=O)N(C)CCN(C)C)nc3c2cnn3C(C)C)c(=O)[nH]1` [Compound B-133], the pIC50 is 5.00 to 5.52.

With `Cc1cc(C)c(CNC(=O)c2cc(N(C)CC(O)CO)nc3c2cnn3C(C)C)c(=O)[nH]1` (centres unmarked) [Compound B-134], the pIC50 was 5.00 to 5.52.

In the case of `Cc1cc(C)c(CNC(=O)c2cc(N(C)CCN(C)C)nc3c2cnn3C(C)C)c(=O)[nH]1` [Compound B-135], the pIC50 was 5.00 to 5.52.

Regarding `Cc1cc(C)c(CNC(=O)c2cc(N(C)C)nc3c2cnn3C(C)C)c(=O)[nH]1` [Compound B-136], the pIC50 was 5.00 to 5.52.

As to `CCc1c(C)[nH]c(=O)c(CNC(=O)c2cc(C3CC(C)(C)NC(C)(C)C3)nc3c2cnn3C(C)C)c1C` [Compound B-137], the pIC50 was 5.00 to 5.52.

As to `Cc1cc(C)c(CNC(=O)c2cc(C(=O)N3CCN(C)CC3)nc3c2cnn3C(C)C)c(=O)[nH]1` [Compound B-138], the pIC50 was 5.00 to 5.52.

Take `Cc1[nH]c(=O)c(CNC(=O)c2cc(C3=CC(C)(C)NC(C)(C)C3)nc3c2cnn3C(C)C)c(C)c1C` [Compound B-139]: the pIC50 is 5.00 to 5.52.

As for `Cc1cc(C)c(CNC(=O)c2cc(C(=O)NCCN(C)C)nc3c2cnn3C(C)C)c(=O)[nH]1` [Compound B-140], the pIC50 was 5.00 to 5.52.

With `Cc1cc(C)c(CNC(=O)c2cc(C(=O)N(C)C)nc3c2cnn3C(C)C)c(=O)[nH]1` [Compound B-141], the pIC50 was 5.00 to 5.52.

For `Cc1cc(C)c(CNC(=O)c2cc(C3CCCCC3)nc3c2cnn3C(C)C)c(=O)[nH]1` [Compound B-142], the negative-log IC50 (pIC50) is 5.00 to 5.52.

For the compound `Cc1[nH]c(=O)c(CNC(=O)c2cc(C3=CC(C)(C)NC(C)(C)C3)nc3c2cnn3C(C)C)c(C)c1Cc1ccccc1` [Compound B-143], the negative-log IC50 (pIC50) is 5.00 to 5.52.

For the compound `Cc1cc(C)c(CNC(=O)c2cc(C3=CC(C)(C)NC(C)(C)C3)nc3c2cnn3CCC#N)c(=O)[nH]1` [Compound B-144], the pIC50 is 5.00 to 5.52.

Consider `Cc1[nH]c(=O)c(CNC(=O)c2cc(C3CC(C)(C)NC(C)(C)C3)nc3c2cnn3C(C)C)c(C)c1Cc1ccccc1` [Compound B-145], for which the pIC50 was 4.30 to 5.00.

Take `Cc1cc(C)c(CNC(=O)c2cc(C3=CC(C)(C)NC(C)(C)C3)nc3c2cnn3CCO)c(=O)[nH]1` [Compound B-146]: the pIC50 was 4.30 to 5.00.

With `Cc1cc(C)c(CNC(=O)c2cc(O)nc3c2cnn3C(C)C)c(=O)[nH]1` [Compound B-147], the pIC50 was 4.30 to 5.00.

With `Cc1cc(C)c(CNC(=O)c2cc(C3=CC(C)(C)NC(C)(C)C3)nc3c2cnn3Cc2ccccc2)c(=O)[nH]1` [Compound B-151], the pIC50 was 4.30 to 5.00.

For `Cc1cc(C)c(CNC(=O)c2cc(C3=CC(C)(C)NC(C)(C)C3)nc3c2cnn3CCN(C)C)c(=O)[nH]1` [Compound B-152], the negative-log IC50 (pIC50) is 4.30 to 5.00.

Turning to `Cc1cc(C)c(CNC(=O)c2cc(C3=CC(C)(C)NC(C)(C)C3)nc3c2cnn3C)c(=O)[nH]1` [Compound B-153], the pIC50 was 4.30 to 5.00.

For `CC(=O)n1ncc2c(C(=O)NCc3c(C)cc(C)[nH]c3=O)cc(C3=CC(C)(C)NC(C)(C)C3)nc21` [Compound B-154], the negative-log IC50 (pIC50) was 4.30 to 5.00.

With `C=CCn1ncc2c(C(=O)NCc3c(C)cc(C)[nH]c3=O)cc(C3=CC(C)(C)NC(C)(C)C3)nc21` [Compound B-155], the pIC50 was 4.30 to 5.00.

In the case of `CCOC(=O)Cn1ncc2c(C(=O)NCc3c(C)cc(C)[nH]c3=O)cc(C3=CC(C)(C)NC(C)(C)C3)nc21` [Compound B-156], the negative-log IC50 (pIC50) is 4.30 to 5.00.

As to `Cc1cc(C)c(CNC(=O)c2cc(C3=CC(C)(C)NC(C)(C)C3)nc3c2cnn3CC(F)(F)F)c(=O)[nH]1` [Compound B-164], the negative logarithm of the IC50 (pIC50) is 5.00 to 5.52.

`Cc1cc(C)c(CNC(=O)c2cc(-c3ccc(CN4CCOCC4)nc3)cc3c2cnn3C2CCCC2)c(=O)[nH]1` [Compound C-2, 1-cyclopentyl-N-((4,6-dimethyl-2-oxo-1,2-dihydropyridin-3-yl)methyl)-6-(6-(morpholinomethyl)pyridin-3-yl)-1H-indazole-4-carboxamide]: the negative-log IC50 (pIC50) is > 6.52.

Turning to `Cc1cc(C)c(CNC(=O)c2cc(-c3ccc(CN(C)C)cc3)cc3c2cnn3C2CCCC2)c(=O)[nH]1` [Compound C-3, 1-cyclopentyl-N-((4,6-dimethyl-2-oxo-1,2-dihydropyridin-3-yl)methyl)-6-(4-((dimethylamino)methyl)phenyl)-1H-indazole-4-carboxamide], the negative-log IC50 (pIC50) is > 6.52.

As to `Cc1cc(C)c(CNC(=O)c2cc(-c3ccc(COCCCN(C)C)cc3)cc3c2cnn3C2CCCC2)c(=O)[nH]1` [Compound C-4, 1-cyclopentyl-N-((4,6-dimethyl-2-oxo-1,2-dihydropyridin-3-yl)methyl)-6-(4-((3-(dimethylamino)propoxy)methyl)phenyl)-1H-indazole-4-carboxamide], the negative logarithm of the IC50 (pIC50) was > 6.52.

As for `Cc1cc(C)c(CNC(=O)c2cc(-c3ccc(CN4CCOCC4)cc3)cc3c2cnn3C(C)C)c(=O)[nH]1` [Compound C-5, N-((4,6-dimethyl-2-oxo-1,2-dihydropyridin-3-yl)methyl)-1-isopropyl-6-(4-(morpholinomethyl)phenyl)-1H-indazole-4-carboxamide], the negative logarithm of the IC50 (pIC50) was > 6.52.

In the case of `Cc1cc(C)c(CNC(=O)c2cc(-c3ccc(CN4CCOCC4)cc3C)cc3c2cnn3C2CCCC2)c(=O)[nH]1` [Compound C-6, 1-cyclopentyl-N-((4,6-dimethyl-2-oxo-1,2-dihydropyridin-3-yl)methyl)-6-(2-methyl-4-(morpholinomethyl)phenyl)-1H-indazole-4-carboxamide], the negative-log IC50 (pIC50) was > 6.52.

`Cc1cc(C)c(CNC(=O)c2cc(-c3cccc(CO)c3)cc3c2cnn3C2CCCC2)c(=O)[nH]1` [Compound C-8, 1-cyclopentyl-N-((4,6-dimethyl-2-oxo-1,2-dihydropyridine-3-yl)methyl)-6-(3-(hydroxymethyl)phenyl)-1H-indazole-4-carboxamide]: the negative-log IC50 (pIC50) was 6.00 to 6.52.

As to `Cc1cc(C)c(CNC(=O)c2cc(-c3cccc(CNCCO)c3)cc3c2cnn3C2CCCC2)c(=O)[nH]1` [Compound C-9, 1-cyclopentyl-N-((4,6-dimethyl-2-oxo-1,2-dihydropyridin-3-yl)methyl)-6-(3-(((2-hydroxyethyl)amino)methyl)phenyl)-1H-indazole-4-carboxamide], the pIC50 is > 6.52.

With `CNCCCOc1cccc(-c2cc(C(=O)NCc3c(C)cc(C)[nH]c3=O)c3cnn(C4CCCC4)c3c2)c1` [Compound C-10, 1-cyclopentyl-N-((4,6-dimethyl-2-oxo-1,2-dihydropyridin-3-yl)methyl)-6-(3-(3-(methylamino)propoxy)phenyl)-1H-indazole-4-carboxamide], the negative logarithm of the IC50 (pIC50) was > 6.52.

With `Cc1cc(C)c(CNC(=O)c2cc(-c3cccc(OCCCN(C)C)c3)cc3c2cnn3C2CCCC2)c(=O)[nH]1` [Compound C-11, 1-cyclopentyl-N-((4,6-dimethyl-2-oxo-1,2-dihydropyridin-3-yl)methyl)-6-(3-(3-(dimethylamino)propoxy)phenyl)-1H-indazole-4-carboxamide], the negative logarithm of the IC50 (pIC50) is > 6.52.

As to `CNCCCOc1ccc(-c2cc(C(=O)NCc3c(C)cc(C)[nH]c3=O)c3cnn(C4CCCC4)c3c2)cc1` [Compound C-12, 1-cyclopentyl-N-((4,6-dimethyl-2-oxo-1,2-dihydropyridin-3-yl)methyl)-6-(4-(3-(methylamino)propoxy)phenyl)-1H-indazole-4-carboxamide], the negative-log IC50 (pIC50) is > 6.52.

For `Cc1cc(C)c(CNC(=O)c2cc(-c3ccc(CN4CCC[C@@H]4C(N)=O)cc3)cc3c2cnn3C2CCCC2)c(=O)[nH]1` [Compound C-13, (R)-6-(4-((2-carbamoylpyrrolidin-1-yl)methyl)phenyl)-1-cyclopentyl-N-((4,6-dimethyl-2-oxo-1,2-dihydropyridin-3-yl)methyl)-1H-indazole-4-carboxamide], the pIC50 was > 6.52.

Regarding `Cc1cc(C)c(CNC(=O)c2cc(-c3ccc(CN4CCOCC4)cn3)cc3c2cnn3C2CCCC2)c(=O)[nH]1` [Compound C-15, 1-cyclopentyl-N-((4,6-dimethyl-2-oxo-1,2-dihydropyridin-3-yl)methyl)-6-(5-(morpholinomethyl)pyridin-2-yl)-1H-indazole-4-carboxamide], the pIC50 is > 6.52.

`Cc1cc(C)c(CNC(=O)c2cc(-c3ccc(C)c(S(N)(=O)=O)c3)cc3c2cnn3C2CCCC2)c(=O)[nH]1` [Compound C-16]: the pIC50 was > 6.52.

Consider `Cc1cc(C)c(CNC(=O)c2cc(-c3ccc(CN(C)CCCN(C)C)cc3)cc3c2cnn3C2CCCC2)c(=O)[nH]1` [Compound C-17], for which the pIC50 was > 6.52.

As for `Cc1cc(C)c(CNC(=O)c2cc(-c3ccc(COCCCN4CCOCC4)cc3)cc3c2cnn3C2CCCC2)c(=O)[nH]1` [Compound C-18], the pIC50 was > 6.52.

For `Cc1cc(C)c(CNC(=O)c2cc(-c3cccc(C[N+](C)(C)CCO)c3)cc3c2cnn3C2CCCC2)c(=O)[nH]1` [Compound C-19], the pIC50 is > 6.52.

As to `Cc1cc(C)c(CNC(=O)c2cc(-c3ccc(COCCN4CCOCC4)cc3)cc3c2cnn3C2CCCC2)c(=O)[nH]1` [Compound C-20], the negative-log IC50 (pIC50) was > 6.52.
